# Laboratory results from patent US5861498A, “Nucleotides encoding immunophilin FKBP46 and fragments thereof” (Thomas Jefferson University, priority 1996, dated 1999).
# T1: FKBP46 (Spodoptera frugiperda, UniProt Q26486)
# T1 construct: Nuclear extract containing full-length FKBP46; made in house
# T1 sequence (Q26486 1-412): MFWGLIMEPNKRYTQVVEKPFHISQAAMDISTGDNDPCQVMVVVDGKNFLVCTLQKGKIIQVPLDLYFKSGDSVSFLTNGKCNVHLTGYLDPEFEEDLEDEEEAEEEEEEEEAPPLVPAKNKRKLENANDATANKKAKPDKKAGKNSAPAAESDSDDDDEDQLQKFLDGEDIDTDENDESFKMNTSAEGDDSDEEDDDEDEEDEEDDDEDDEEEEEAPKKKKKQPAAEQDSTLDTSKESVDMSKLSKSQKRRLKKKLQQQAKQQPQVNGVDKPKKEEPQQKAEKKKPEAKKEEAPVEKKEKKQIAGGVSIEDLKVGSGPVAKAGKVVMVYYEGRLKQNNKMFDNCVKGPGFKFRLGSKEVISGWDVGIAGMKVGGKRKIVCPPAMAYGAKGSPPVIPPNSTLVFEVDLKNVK
# Assays:
# FKBP46 [1] = target: T1, FKBP46; experiment: [3H]Dihydro-FK506 binding assay, His-FKBP46 immobilized on Ni2+ affinity resin; design: species or system Sf9 insect cell
# Protocol: (§1) FIGS. 3A and 3B show FK506 binding and Peptidylprolyl cis-trans isomerase activities of FKBP46. In FIG. 3A, purified His-FKBP46 immobilized on Ni^2+ affinity resin was incubated with [^3 H]dihydro-FK506 in the presence […] or absence of cold FK506. The numbers under each column represent different amounts of nuclear extracts in microliters from Sf9 cells--expressing His-FKBP46 bound to separate Ni^2+ affinity resins. Nuclear extracts from wild type (WT) baculovirus infected Sf9 cells (10 μl) were bound to Ni^2+ affinity resin and used as a control. The amount of radioactivity associated with each resin sample is represented in disintegrations/min. In FIG. 3B, time-dependant release of p-nitroanilide by chymotrypsin from trans N-succinyl-Ala-Leu-Pro-Phe-p-nitroanilide measured by absorbance at 400 nm. Curve A reflects the rate of release of p-nitroanilide in a reaction catalyzed by FKBP46. Curve B is the same as curve A but in the presence of 5 μM FK506. Curve C is the same but without FKBP46. […]
# (§2) The radioactivity associated with FKBP46 was measured by scintillation counting. […] Chymotrypsin hydrolyzes the trans form to generate p-nitroanilide, which can be quantitated spectrophotometrically at 400 nm. […] From these curves, the specific activity of FKBP46 was calculated using the first order rate constant (S^-1), and the molar concentration of FKBP46 to be about 7.8×10^6 […]. […]
# FKBP46 [2] = target: T1, FKBP46; experiment: Peptidylprolyl cis-trans isomerase assay, inhibition by FK506; type: biochemical, Sf9 insect cell; conditions: 5 μM FK506, 100 nM His-FKBP46, 15° C.; FIG. 3B curve B
# Protocol: as §1, with “nm.” for “nm. Curve A reflects the rate of release of p-nitroanilide in a reaction catalyzed by FKBP46. Curve B is the same as curve A but in the presence of 5 μM FK506. Curve C is the same but without FKBP46.”
# Peptidylprolyl cis-trans Isomerase Assay--Peptidylprolyl isomerase activity of FKBP46 was assayed as described previously (Harrison, R. K., and Stein, R. L. (1990) Biochemistry 29, 3813-3816 and Park, S. T., et al. (1992) J. Biol. Chem. 267, 3316-3324) with some modifications. […] The reaction was started by the addition of chymotrypsin (100 μg/ml final) (Sigma), and the release of p-nitroanilide by chymotrypsin was measured by recording the increase in absorbance at 400 nm using a Perkin Elmer λ 3B spectrophotometer connected to a chart recorder. […]
# [3] = target: N-succinyl-Ala-Leu-Pro-Phe-p-nitroanilide
# [4] = test system: N-succinyl-Ala-Leu-Pro-Phe-p-nitroanilide; conditions: literature value for comparison (ref 19); cited from earlier work
# [5] = test system: N-succinyl-Ala-Leu-Pro-Phe-p-nitroanilide; experiment: Peptidylprolyl cis-trans isomerase assay, specific activity of the immunophilin; type: biochemical; conditions: His-FKBP46 100 nM, substrate 75 μM, 15° C.
# Protocol: Peptidylprolyl cis-trans Isomerase Assay--Peptidylprolyl isomerase activity of FKBP46 was assayed as described previously (Harrison, R. K., and Stein, R. L. (1990) Biochemistry 29, 3813-3816 and Park, S. T., et al. (1992) J. Biol. Chem. 267, 3316-3324) with some modifications. His-FKBP46 (100 nM final) was incubated with the peptide substrate N-succinyl-Ala-Leu-Pro-Phe-p-nitroanilide (75 μM final) (Bachem, Switzerland) at 15° C. for 15 min. The reaction was started by the addition of chymotrypsin (100 μg/ml final) (Sigma), and the release of p-nitroanilide by chymotrypsin was measured by recording the increase in absorbance at 400 nm using a Perkin Elmer λ 3B spectrophotometer connected to a chart recorder.
# as §2, with “counting. […] Under these conditions, maximal binding was obtained when 10 μl of nuclear extracts containing recombinant His-FKBP46 were immobilized on Ni^2+ affinity resin (FIG. 3A, column 6).” for “counting.”
molecule,measurement,setting,value
C=CC[C@@H]1/C=C(\C)C[C@H](C)C[C@H](OC)[C@H]2O[C@@](O)(C(=O)C(=O)N3CCCC[C@H]3C(=O)O[C@H](/C(C)=C/[C@@H]3CC[C@@H](O)[C@H](OC)C3)[C@H](C)[C@@H](O)CC1=O)[C@H](C)C[C@@H]2OC [FK506],[3H]dihydro-FK506 binding to FKBP46 in the presence of excess cold FK506,"FKBP46 [1]; 5000-fold excess of cold FK506, comparable with mock purified wild type extract, FIG. 3A columns 3, 5, 7",minimal
same,inhibition at 5 µM,FKBP46 [2],~50%
recombinant His-FKBP46,"peptidylprolyl cis-trans isomerase activity (chymotrypsin-coupled release of p-nitroanilide, absorbance at 400 nm)",[3],7.8e+06 s⁻¹ M⁻¹
"hFKBP12: human FK binding protein FKBP12, comparison immunophilin",specific activity,[4],about 4.3×10^6 s^-1. M^-1
[3H]CC([3H])C[C@@H]1/C=C(\C)C[C@H](C)C[C@H](OC)[C@H]2O[C@@](O)(C(=O)C(=O)N3CCCC[C@H]3C(=O)O[C@H](/C(C)=C/[C@@H]3CC[C@@H](O)[C@H](OC)C3)[C@H](C)[C@@H](O)CC1=O)[C@H](C)C[C@@H]2OC (stereo partly drawn) [[^3 H]dihydro-FK506],[3H]dihydro-FK506 binding to FKBP46 (radioactivity associated with resin),"FKBP46 [1]; 50 nM [3H]dihydro-FK506, on ice 18 h, absence of cold FK506, FIG. 3A",can bind specifically to FKBP46 in a dose-dependent manner
"FKBP46: novel Sf9 insect cell nuclear immunophilin, SEQ ID NO:2; tested as recombinant His-tagged protein (protein, His tag, tested as recombinant His-tagged protein) MFWGLIMEPNKRYTQVVEKPFHISQAAMDISTGDNDPCQVMVVVDGKNFLVCTLQKGKIIQVPLDLYFKSGDSVSFLTNGKCNVHLTGYLDPEFEEDLEDEEEAEEEEEEEEAPPLVPAKNKRKLENANDATANKKAKPDKKAGKNSAPAAESDSDDDDEDQLQKFLDGEDIDTDENDESFKMNTSAEGDDSDEEDDDEDEEDEEDDDEDDEEEEEAPKKKKKQPAAEQDSTLDTSKESVDMSKLSKSQKRRLKKKLQQQAKQQPQVNGVDKPKKEEPQQKAEKKKPEAKKEEAPVEKKEKKQIAGGVSIEDLKVGSGPVAKAGKVVMVYYEGRLKQNNKMFDNCVKGPGFKFRLGSKEVISGWDVGIAGMKVGGKRKIVCPPAMAYGAKGSPPVIPPNSTLVFEVDLKNVK",specific activity (first order rate constant / molar concentration),[5],about 7.8×10^6 s^-1. M^-1
